Measured values: patent US20120121540A1 (priority 2007, published 2012)

Experiment: HCV replicon assay (luciferase reporter, ET cell line)
Type: cell-based
Conditions: Hepatitis C virus, HCV replicon luciferase activity in ET cells
Outline: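 EC50 and, via WST-1 cytotoxicity, TC50 were fitted with a Hill-coefficient equation to % inhibition across 10 two-fold dilutions. Compounds at 0.1 nM-[…] with 0.5% DMSO were applied 24 h post-seeding to replicon-bearing ET cells (luc-ubi-neo/NS3-5B, adaptive mutations). Firefly luciferase signal was measured after 48-72 h.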

SMILES | inhibition at 10 µM [%]
O=C(c1nc2c(C(F)(F)F)cc(-c3ccoc3)cn2c1Cl)N1CCC(n2cnc3ccccc32)CC1 [Compound 605, (4-Benzoimidazol-1-yl-piperidin-1-yl)-(3-chloro-6-furan-3-yl-8-trifluoromethyl-imidazo[1,2-a]pyridin-2-yl)-methanone] | 3.1
O=C(c1nc2c(C(F)(F)F)cc(-c3cn[nH]c3)cn2c1Cl)N1CCC(c2ccccc2F)CC1 [Compound 606, [3-Chloro-6-(1H-pyrazol-4-yl)-8-trifluoromethyl-imidaz [1,2-a]pyridin-2-yl]-[4-(2-fluoro-phenyl)-piperidin-1-yl]-methanone] | 87.9
N#Cc1ccccc1C1CCN(C(=O)c2nc3c(C(F)(F)F)cc(-c4cn[nH]c4)cn3c2Cl)CC1 [Compound 607, 2-{1-[3-Chloro-6-(1H-pyrazol-4-yl)-8-trifluoromethyl-imidazo[1,2-a]pyridine-2-carbonyl]-piperidin-4-yl}-benzonitrile] | 92.2
O=C(c1nc2c(C(F)(F)F)cc(-c3cn[nH]c3)cn2c1Br)N1CC=C(c2ccc(F)cc2)CC1 [Compound 608, [3-Bromo-6-(1H-pyrazol-4-yl)-8-trifluoromethyl-imidazo[1,2-a]pyridin-2-yl]-[4-(4-fluoro-phenyl)-3,6-dihydro-2H-pyridin-1-yl]-methanone] | 62.7
O=C(c1nc2c(C(F)(F)F)cc(-c3cn[nH]c3)cn2c1Br)N1CC=C(c2cscn2)CC1 [Compound 609, [3-Bromo-6-(1H-pyrazol-4-yl)-8-trifluoromethyl-imidazo[1,2-a]pyridin-2-yl]-(4-thiazol-4-yl-3,6-dihydro-2H-pyridin-1-yl)-methanone] | 94.1
O=C(c1nc2c(C(F)(F)F)cc(-c3cn[nH]c3)cn2c1Br)N1CCN(c2nccs2)CC1 [Compound 610, [3-Bromo-6-(1H-pyrazol-4-yl)-8-trifluoromethyl-imidazo[1,2-a]pyridin-2-yl]-(4-thiazol-2-yl-piperazin-1-yl)-methanone] | 68.7
O=C(c1nc2c(C(F)(F)F)cc(-c3cn[nH]c3)cn2c1Br)N1CCC(c2nccs2)CC1 [Compound 611, [3-Bromo-6-(1H-pyrazol-4-yl)-8-trifluoromethyl-imidazo[1,2-a]pyridin-2-yl]-(4-thiazol-2-yl-piperidin-1-yl)-methanone] | 92.4
O=C(c1cn2cc(-c3cn[nH]c3)cc(C(F)(F)F)c2n1)N1CC=C(c2nccs2)CC1 [Compound 612, [6-(1H-pyrazol-4-yl)-8-(trifluoromethyl)imidazo[1,2-a]pyridin-2-yl][4-(1,3-thiazol-2-yl)-3,6-dihydropyridin-1(2H)-yl]methanone] | 59.3
O=C(c1nc2c(C(F)(F)F)cc(-c3ccoc3)cn2c1Cl)N1CC=C(c2cccs2)CC1 [Compound 613, (3-Chloro-6-furan-3-yl-8-trifluoromethyl-imidazo[1,2-a]pyridin-2-yl)-(4-thiophen-2-yl-3,6-dihydro-2H-pyridin-1-yl)-methanone] | 99.4
N#Cc1c(F)cccc1C1=CCN(C(=O)c2nc3c(C(F)(F)F)cc(-c4ccoc4)cn3c2Cl)CC1 [Compound 614, 2-[1-(3-Chloro-6-furan-3-yl-8-trifluoromethyl-imidazo[1,2-a]pyridine-2-carbonyl)-1,2,3,6-tetrahydro-pyridin-4-yl]-6-fluoro-benzonitrile] | 89.7
COc1ccc(F)c(C2=CCN(C(=O)c3nc4c(C(F)(F)F)cc(-c5ccoc5)cn4c3Cl)CC2)c1F [Compound 616, (3-Chloro-6-furan-3-yl-8-trifluoromethyl-imidazo[1,2-a]pyridin-2-yl)-[4-(2,6-difluoro-3-methoxy-phenyl)-3,6-dihydro-2H-pyridin-1-yl]-methanone] | 64.9
O=C(c1nc2c(C(F)(F)F)cc(-c3ccoc3)cn2c1Cl)N1CC=C(c2ccc(F)nc2F)CC1 [Compound 617, (3-Chloro-6-furan-3-yl-8-trifluoromethyl-imidazo[1,2-a]pyridin-2-yl)-(2,6-difluoro-3′,6′-dihydro-2′H-[3,4′]bipyridinyl-1′-yl)-methanone] | 95
O=C(c1nc2c(C(F)(F)F)cc(-c3ccoc3)cn2c1Cl)N1CC=C(c2cncnc2)CC1 [Compound 618, [3-chloro-6-(furan-3-yl)-8-(trifluoromethyl)imidazo[1,2-a]pyridin-2-yl][4-(pyrimidin-5-yl)-3,6-dihydropyridin-1(2H)-yl]methanone] | 95.9
O=C(c1nc2c(C(F)(F)F)cc(-c3ccoc3)cn2c1Cl)N1CC=C(C2=CN=CNC2)CC1 [Compound 619, [3-chloro-6-(furan-3-yl)-8-(trifluoromethyl)imidazo[1,2-a]pyridin-2-yl][4-(1,6-dihydropyrimidin-5-yl)-3,6-dihydropyridin-1(2H)-yl]methanone] | 44
Cn1cc(-c2cc(C(F)(F)F)c3nc(C(=O)N4CCC(c5cccc(F)c5)C4)c(Cl)n3c2)cn1 (stereo not drawn) [Compound 624, [3-Chloro-6-(1-methyl-1H-pyrazol-4-yl)-8-trifluoromethyl-imidazo[1,2-a]pyridin-2-yl]-[3-(3-fluoro-phenyl)-pyrrolidin-1-yl]-methanone] | 63.9
Cc1n[nH]cc1-c1cc(C(F)(F)F)c2nc(C(=O)N3CCC(c4cccc(F)c4)C3)c(Cl)n2c1 (stereo not drawn) [Compound 625, [3-Chloro-6-(3-methyl-1H-pyrazol-4-yl)-8-trifluoromethyl-imidazo[1,2-a]pyridin-2-yl]-[3-(3-fluoro-phenyl)-pyrrolidin-1-yl]-methanone] | 59.8
O=C(c1nc2c(C(F)(F)F)cc(C3=CCNCC3)cn2c1Cl)N1CCC(c2cccc(F)c2)C1 (stereo not drawn) [Compound 629, [3-chloro-6-(1,2,3,6-tetrahydropyridin-4-yl)-8-(trifluoromethyl)imidazo[1,2-a]pyridin-2-yl][3-(3-fluorophenyl)pyrrolidin-1-yl]methanone] | 73.3
O=C(c1nc2c(C(F)(F)F)cc(-c3coc(Cl)c3)cn2c1Cl)N1CCC(c2cccc(F)c2)C1 (stereo not drawn) [Compound 633, [3-Chloro-6-(5-chloro-furan-3-yl)-8-trifluoromethyl-imidazo[1,2-a]pyridin-2-yl]-[3-(3-fluoro-phenyl)-pyrrolidin-1-yl]-methanone] | 90.2
O=C(c1nc2c(C(F)(F)F)cc(-c3ccoc3)cn2c1Cl)N1C2C=C(c3cscn3)CC1CC2 (stereo not drawn) [Compound 634, [3-chloro-6-(furan-3-yl)-8-(trifluoromethyl)imidazo[1,2-a]pyridin-2-yl][3-(1,3-thiazol-4-yl)-8-azabicyclo[3.2.1]oct-2-en-8-yl]methanone] | 86.4
N#Cc1c(F)ccc(F)c1C1=CCN(C(=O)c2nc3c(C(F)(F)F)cc(-c4ccoc4)cn3c2Cl)CC1 [Compound 635, 2-(1-{[3-chloro-6-(furan-3-yl)-8-(trifluoromethyl)imidazo[1,2-a]pyridin-2-yl]carbonyl}-1,2,3,6-tetrahydropyridin-4-yl)-3,6-difluorobenzonitrile] | 95.9
CC(=O)NCc1c(-c2ccoc2)cc(C(F)(F)F)c2nc(C(=O)N3CCC(c4cccc(F)c4)C3)cn12 (stereo not drawn) [Compound 637, N-{[2-{[3-(3-fluorophenyl)pyrrolidin-1-yl]carbonyl}-6-(furan-3-yl)-8-(trifluoromethyl)imidazo[1,2-a]pyridin-5-yl]methyl}acetamide] | 60.8
O=C(c1cn2cc(-c3ccoc3)cc(C(F)(F)F)c2n1)N1CCC(c2cccc(F)c2)C1 (stereo not drawn) [Compound 638, [3-(3-Fluoro-phenyl)-pyrrolidin-1-yl]-(6-furan-3-yl-8-trifluoromethyl-imidazo[1,2-a]pyridin-2-yl)-methanone] | 98.5
O=C(c1cn2cc(-c3ccccc3)cc(C(F)(F)F)c2n1)N1CCC(c2cccc(F)c2)C1 (stereo not drawn) [Compound 639, [3-(3-Fluoro-phenyl)-pyrrolidin-1-yl]-(6-phenyl-8-trifluoromethyl-imidazo[1,2-a]pyridin-2-yl)-methanone] | 71.9
O=C(c1nc2c(C(F)(F)F)cc(-c3ccccc3)cn2c1Br)N1CCC(c2cccc(F)c2)C1 (stereo not drawn) [Compound 640, (3-Bromo-6-phenyl-8-trifluoromethyl-imidazo[1,2-a]pyridin-2-yl)-[3-(3-fluoro-phenyl)-pyrrolidin-1-yl]-methanone] | 88.1
O=C(c1nc2c(C(F)(F)F)cc(-c3ccccc3)cn2c1Cl)N1CCC(c2cccc(F)c2)C1 (stereo not drawn) [Compound 641, (3-Chloro-6-phenyl-8-trifluoromethyl-imidazo[1,2-a]pyridin-2-yl)-[3-(3-fluoro-phenyl)-pyrrolidin-1-yl]-methanone] | 80.9
CC(=O)c1cc(C(F)(F)F)c2nc(C(=O)N3CCC(c4cccc(F)c4)C3)c(Cl)n2c1 (stereo not drawn) [Compound 642, 1-{3-Chloro-2-[3-(3-fluoro-phenyl)-pyrrolidine-1-carbonyl]-8-trifluoromethyl-imidazo[1,2-a]pyridin-6-yl}-ethanone] | 73.8
Nc1nc(-c2cc(C(F)(F)F)c3nc(C(=O)N4CCC(c5cccc(F)c5)C4)c(Cl)n3c2)cs1 (stereo not drawn) [Compound 643, 2[6-(2-Amino-thiazol-4-yl)-3-chloro-8-trifluoromethyl-imidazo[1,2-a]pyridin-2-yl]-[3-(3-fluoro-phenyl)-pyrrolidin-1-yl]-methanone] | 74.5
CC(=O)Nc1nc(-c2cc(C(F)(F)F)c3nc(C(=O)N4CCC(c5cccc(F)c5)C4)c(Cl)n3c2)cs1 (stereo not drawn) [Compound 644, N-(4-{3-Chloro-2-[3-(3-fluoro-phenyl)-pyrrolidine-1-carbonyl]-8-trifluoromethyl-imidazo[1,2-a]pyridin-6-yl}-thiazol-2-yl)-acetamide] | 59.6
CC(C)c1cc(-c2ccccc2)cn2c(Br)c(C(=O)NCc3cccs3)nc12 [Compound 645, 3-Bromo-8-isopropyl-6-phenyl-imidazo[1,2-a]pyridine-2-carboxylic acid (thiophen-2-ylmethyl)-amide] | 87.1
CC(C)c1cc(-c2ccccc2)cn2cc(C(=O)N3CCC(c4cccc(F)c4)C3)nc12 (stereo not drawn) [Compound 646, [3-(3-Fluoro-phenyl)-pyrrolidin-1-yl]-(8-isopropyl-6-phenyl-imidazo[1,2-a]pyridin-2-yl)-methanone] | 42.4
